Source: patent publication US8546377B2 (AbbVie Inc., priority 2009, dated 2013)

Experiments:
5HT2C receptors = target: T1, 5HT2C receptors (Homo sapiens, UniProt P28335); experiment: Human 5-HT2C functional assay in CHO-K1 cells (calcium flux, FLIPR); format: cell-based; design: expressed in transfected cells; host or cells: CHO-K1 cells; conditions: for EC50: CHO-K1 cells over-expressing 5HT2C, calcium flux, read-out: EC50 (μM), 5-HT2c Agonist Activity; for Emax: CHO-K1 cells, percentage relative to the effect of serotonin, read-out: Emax (%), 5-HT2c Agonist Activity
T1 sequence (P28335 33-458): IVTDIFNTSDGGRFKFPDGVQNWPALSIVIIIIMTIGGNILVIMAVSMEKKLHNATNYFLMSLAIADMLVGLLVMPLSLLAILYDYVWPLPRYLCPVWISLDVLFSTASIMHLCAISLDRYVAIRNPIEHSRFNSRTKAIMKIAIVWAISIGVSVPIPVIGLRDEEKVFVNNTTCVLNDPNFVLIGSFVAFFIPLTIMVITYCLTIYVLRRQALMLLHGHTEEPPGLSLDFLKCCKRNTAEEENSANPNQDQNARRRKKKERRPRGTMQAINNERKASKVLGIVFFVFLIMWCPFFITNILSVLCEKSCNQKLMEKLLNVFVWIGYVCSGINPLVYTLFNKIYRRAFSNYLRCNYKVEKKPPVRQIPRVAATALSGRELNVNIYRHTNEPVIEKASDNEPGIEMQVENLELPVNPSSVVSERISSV
How it was run: (§1)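 EC50 came from a 4-parameter logistic fit, with Emax expressed relative to serotonin, of intracellular Ca2+ rises read on FLIPR at 480/530 nm, 25° C, over 3 min. Compounds ran from 10 μM in six 1:10 steps (0.2% DMSO) on serum-starved CHO-K1 transfectants pre-loaded 60 min with Ca4 dye and probenecid.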

5HT2B receptors = target: T2, 5HT2B receptors (Homo sapiens, UniProt P41595); experiment: Human 5-HT2B functional assay in CHO-K1 cells (calcium flux, FLIPR); format: cell-based; conditions: for EC50: CHO-K1 cells over-expressing 5HT2B, calcium flux, read-out: EC50 (μM), 5-HT2B Agonist Activity; for Emax: CHO-K1 cells, percentage relative to the effect of serotonin, read-out: Emax (%), 5-HT2B Agonist Activity
T2 construct: expressed in transfected cells; host or cells: CHO-K1 cells
T2 sequence (P41595 whole entry): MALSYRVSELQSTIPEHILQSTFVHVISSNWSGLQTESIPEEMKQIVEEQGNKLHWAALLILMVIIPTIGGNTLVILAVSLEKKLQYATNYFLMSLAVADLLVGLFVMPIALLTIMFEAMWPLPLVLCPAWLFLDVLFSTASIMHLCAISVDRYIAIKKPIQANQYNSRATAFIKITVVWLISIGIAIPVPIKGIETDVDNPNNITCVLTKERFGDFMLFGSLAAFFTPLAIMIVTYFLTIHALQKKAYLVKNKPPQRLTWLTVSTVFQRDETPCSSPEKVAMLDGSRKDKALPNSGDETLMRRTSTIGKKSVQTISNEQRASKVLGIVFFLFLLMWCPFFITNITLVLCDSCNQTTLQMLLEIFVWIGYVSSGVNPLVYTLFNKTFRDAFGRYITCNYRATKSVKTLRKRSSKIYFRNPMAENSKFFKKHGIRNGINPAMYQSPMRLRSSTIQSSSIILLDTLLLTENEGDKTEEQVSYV
How it was run: as §1

| SMILES | EC50 (5HT2C receptors) [µM] | Emax (5HT2C receptors) [%] | EC50 (5HT2B receptors) [µM] | Emax (5HT2B receptors) [%] |
| --- | --- | --- | --- | --- |
| CN1C(=O)CC2CNCCN2c2cc(CCc3ccccc3)ccc21 (stereo not drawn) [Example 151, 7-methyl-10-(2-phenylethyl)-1,2,3,4,4a,5-hexahydropyrazino[1,2-a][1,5]benzodiazepin-6(7H)-one] | 0.07 | 110 | 5 | 30 |
| O=C1CC2CNCCN2c2cc(OCCc3cccc(F)c3)ccc2N1 (stereo not drawn) [Example 152, 10-[2-(3-fluorophenyl)ethoxy]-1,2,3,4,4a,5-hexahydropyrazino[1,2-a][1,5]benzodiazepin-6(7H)-one] | 0.01 | 100 | > 10 | – |
| C[C@@H](Oc1ccc2c(c1)N1CCNCC1CC(=O)N2)c1ccccc1 (stereo partly drawn) [Example 153, 10-[(1R)-1-phenylethoxy]-1,2,3,4,4a,5-hexahydropyrazino[1,2-a][1,5]benzodiazepin-6(7H)-one] | 0.01 | 110 | 0.1 | 20 |
| C[C@H](Oc1ccc2c(c1)N1CCNCC1CC(=O)N2)c1ccccc1 (stereo partly drawn) [Example 154, 10-[(1S)-1-phenylethoxy]-1,2,3,4,4a,5-hexahydropyrazino[1,2-a][1,5]benzodiazepin-6(7H)-one] | 0.103 | > 120 | 0.7 | 44 |
| O=C1CC2CNCCN2c2cc(OCc3ccccc3F)ccc2N1 (stereo not drawn) [Example 155, 10-[(2-fluorobenzyl)oxy]-1,2,3,4,4a,5-hexahydropyrazino[1,2-a][1,5]benzodiazepin-6(7H)-one] | 0.0384 | > 120 | > 10 | – |
| O=C1CC2CNCCN2c2cc(OCc3cccc(F)c3)ccc2N1 (stereo not drawn) [Example 156, 10-[(3-fluorobenzyl)oxy]-1,2,3,4,4a,5-hexahydropyrazino[1,2-a][1,5]benzodiazepin-6(7H)-one] | 0.0059 | > 120 | 0.35 | 77 |
| O=C1CC2CNCCN2c2cc(OCc3ccccc3C(F)(F)F)ccc2N1 (stereo not drawn) [Example 157, 10-{[2-(trifluoromethyl)benzyl]oxy}-1,2,3,4,4a,5-hexahydropyrazino[1,2-a][1,5]benzodiazepin-6(7H)-one] | 0.0295 | > 120 | > 10 | – |
| O=C1CC2CNCCN2c2cc(OCCc3ccccc3)ccc2N1 (stereo not drawn) [Example 158, 10-(2-phenylethoxy)-1,2,3,4,4a,5-hexahydropyrazino[1,2-a][1,5]benzodiazepin-6(7H)-one] | 0.025 | > 120 | > 10 | – |
| C[C@H](Cc1ccccc1)Oc1ccc2c(c1)N1CCNCC1CC(=O)N2 (stereo partly drawn) [Example 159, 10-{[(2R)-1-phenylpropan-2-yl]oxy}-1,2,3,4,4a,5-hexahydropyrazino[1,2-a][1,5]benzodiazepin-6(7H)-one] | 0.00402 | > 120 | > 10 | – |
| C[C@@H](Cc1ccccc1)Oc1ccc2c(c1)N1CCNCC1CC(=O)N2 (stereo partly drawn) [Example 160, 10-{[(2S)-1-phenylpropan-2-yl]oxy}-1,2,3,4,4a,5-hexahydropyrazino[1,2-a][1,5]benzodiazepin-6(7H)-one] | 0.0797 | > 120 | > 10 | – |
| C[C@@H](Oc1ccc2c(c1)N1CCNCC1CC(=O)N2)c1ccccc1F (stereo partly drawn) [Example 161, 10-[(1R)-1-(2-fluorophenyl)ethoxy]-1,2,3,4,4a,5-hexahydropyrazino[1,2-a][1,5]benzodiazepin-6(7H)-one] | 0.01 | 120 | 1 | 20 |
| C[C@H](Oc1ccc2c(c1)N1CCNCC1CC(=O)N2)c1ccccc1F (stereo partly drawn) [Example 162, 10-[(1S)-1-(2-fluorophenyl)ethoxy]-1,2,3,4,4a,5-hexahydropyrazino[1,2-a][1,5]benzodiazepin-6(7H)-one] | 0.07 | > 120 | 1 | 20 |
| C[C@@H](Cc1ccccc1)Oc1ccc2c(c1)N1CCNC[C@@H]1CC(=O)N2 [Example 163, (4aS)-10-{[(2S)-1-phenylpropan-2-yl]oxy}-1,2,3,4,4a,5-hexahydropyrazino[1,2-a][1,5]benzodiazepin-6(7H)-one] | 0.07 | > 120 | > 10 | – |
| O=C1C[C@H]2CNCCN2c2cc(OCCc3cccc(F)c3)ccc2N1 [Example 164, (4aS)-10-[2-(3-fluorophenyl)ethoxy]-1,2,3,4,4a,5-hexahydropyrazino[1,2-a][1,5]benzodiazepin-6(7H)-one] | 0.007 | > 120 | > 10 | – |
| C[C@H](Cc1ccccc1)Oc1ccc2c(c1)N1CCNC[C@@H]1CC(=O)N2 [Example 165, (4aS)-10-{[(2R)-1-phenylpropan-2-yl]oxy}-1,2,3,4,4a,5-hexahydropyrazino[1,2-a][1,5]benzodiazepin-6(7H)-one] | 0.008 | > 120 | > 10 | – |
| C[C@H](Cc1ccccc1)Oc1ccc2c(c1)N1CCNC[C@H]1CC(=O)N2 [Example 166, (4aR)-10-{[(2R)-1-phenylpropan-2-yl]oxy}-1,2,3,4,4a,5-hexahydropyrazino[1,2-a][1,5]benzodiazepin-6(7H)-one] | 0.04 | > 120 | > 10 | – |
| C[C@@H](Cc1ccccc1)Oc1ccc2c(c1)N1CCNC[C@H]1CC(=O)N2 [Example 167, (4aR)-10-{[(2S)-1-phenylpropan-2-yl]oxy}-1,2,3,4,4a,5-hexahydropyrazino[1,2-a][1,5]benzodiazepin-6(7H)-one] | 1 | 110 | > 10 | – |
| c1ccc(CN2CCN3c4ccccc4OCC[C@H]3C2)cc1 [Example 168, (4aS)-3-benzyl-2,3,4,4a,5,6-hexahydro-1H-pyrazino[2,1-d][1,5]-benzoxazepine] | 0.9 | 50 | > 10 | – |
| O=C1C[C@H]2CNCCN2c2cc(OCC3CC3)ccc2N1 [Example 170, (4aS)-10-(cyclopropylmethoxy)-1,2,3,4,4a,5-hexahydropyrazino[1,2-a][1,5]benzodiazepin-6(7H)-one] | 0.02 | > 120 | > 10 | – |
| O=C1C[C@H]2CNCCN2c2cc(OCCc3ccccn3)ccc2N1 [Example 171, (4aS)-10-[2-(pyridin-2-yl)ethoxy]-1,2,3,4,4a,5-hexahydropyrazino[1,2-a][1,5]benzodiazepin-6(7H)-one] | 0.9 | 100 | > 10 | – |
| O=C1C[C@H]2CNCCN2c2cc(OCCc3ccccc3Cl)ccc2N1 [Example 172, (4aS)-10-[2-(2-chlorophenyl)ethoxy]-1,2,3,4,4a,5-hexahydropyrazino[1,2-a][1,5]benzodiazepin-6(7H)-one] | 0.002 | > 120 | > 10 | – |
| O=C1C[C@H]2CNCCN2c2cc(OCCc3cccc(C(F)(F)F)c3)ccc2N1 [Example 173, (4aS)-10-{2-[3-(trifluoromethyl)phenyl]ethoxy}-1,2,3,4,4a,5-hexahydropyrazino[1,2-a][1,5]benzodiazepin-6(7H)-one] | 0.004 | 110 | > 10 | – |
| CCC(C)Oc1ccc2c(c1)N1CCNC[C@@H]1CC(=O)N2 (stereo partly drawn) [Example 174, (4aS)-10-sec-butoxy-1,2,3,4,4a,5-hexahydropyrazino[1,2-a][1,5]benzodiazepin-6(7H)-one] | 0.007 | > 120 | > 10 | – |
| O=C1C[C@H]2CNCCN2c2cc(OCCc3cccc(Cl)c3)ccc2N1 [Example 175, (4aS)-10-[2-(3-chlorophenyl)ethoxy]-1,2,3,4,4a,5-hexahydropyrazino[1,2-a][1,5]benzodiazepin-6(7H)-one] | 0.001 | > 120 | 0.5 | 20 |
| Cc1cccc(CCOc2ccc3c(c2)N2CCNC[C@@H]2CC(=O)N3)c1 [Example 176, (4aS)-10-[2-(3-methylphenyl)ethoxy]-1,2,3,4,4a,5-hexahydropyrazino[1,2-a][1,5]benzodiazepin-6(7H)-one] | 0.002 | 100 | 1 | 10 |
| CCC(Oc1ccc2c(c1)N1CCNC[C@@H]1CC(=O)N2)c1ccccc1 (stereo partly drawn) [Example 177, (4aS)-10-(1-phenylpropoxy)-1,2,3,4,4a,5-hexahydropyrazino[1,2-a][1,5]benzodiazepin-6(7H)-one] | 0.06 | 110 | > 10 | – |
| C[C@@H](Oc1ccc2c(c1)N1CCNC[C@@H]1CC(=O)N2)c1cc(F)ccc1F [Example 178, (4aS)-10-[(1R)-1-(2,5-difluorophenyl)ethoxy]-1,2,3,4,4a,5-hexahydropyrazino[1,2-a][1,5]benzodiazepin-6(7H)-one] | 0.001 | 100 | 0.04 | 45 |
